Key:
Conditions in all cases: recombinant enzyme
Cytochrome P450 3A4 [1] = target: T1, Cytochrome P450 3A4 (Homo sapiens, UniProt P08684); assay: (§1) Drug activation in human Hep3B cells assessed as human CYP3A4-mediated drug metabolism-induced cytotoxicity measured as decrease in cell viability at 83.8 uM pre-incubated with BSO for 18 hrs followed by incubation with compound for 3 hrs in presence of NADPH measured after 24 hrs in absence of compound, CYP3A4 and NADPH by cell titer-glo luminescence assay relative to BSO alone; type: ADME, cell-based
T1 sequence (P08684 whole entry): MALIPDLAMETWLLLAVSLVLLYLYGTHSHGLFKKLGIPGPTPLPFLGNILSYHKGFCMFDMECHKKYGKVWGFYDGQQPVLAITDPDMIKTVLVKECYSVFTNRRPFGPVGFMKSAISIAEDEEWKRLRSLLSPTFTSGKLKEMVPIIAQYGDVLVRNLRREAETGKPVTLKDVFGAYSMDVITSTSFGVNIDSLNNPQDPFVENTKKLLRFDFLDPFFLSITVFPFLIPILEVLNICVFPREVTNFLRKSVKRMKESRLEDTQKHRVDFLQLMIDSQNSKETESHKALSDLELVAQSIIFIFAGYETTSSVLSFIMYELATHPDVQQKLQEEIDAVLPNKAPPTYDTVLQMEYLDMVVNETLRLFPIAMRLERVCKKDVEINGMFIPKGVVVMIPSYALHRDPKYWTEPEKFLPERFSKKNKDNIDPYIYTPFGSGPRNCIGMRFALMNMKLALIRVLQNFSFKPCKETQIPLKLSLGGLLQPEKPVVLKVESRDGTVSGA

Cytochrome P450 2D6 [2] = target: T2, Cytochrome P450 2D6 (Homo sapiens, UniProt P10635); assay: as §1, with “CYP2D6-mediated” for “CYP3A4-mediated”, “193.1” for “83.8”; type: ADME, cell-based
T2 sequence (P10635 whole entry): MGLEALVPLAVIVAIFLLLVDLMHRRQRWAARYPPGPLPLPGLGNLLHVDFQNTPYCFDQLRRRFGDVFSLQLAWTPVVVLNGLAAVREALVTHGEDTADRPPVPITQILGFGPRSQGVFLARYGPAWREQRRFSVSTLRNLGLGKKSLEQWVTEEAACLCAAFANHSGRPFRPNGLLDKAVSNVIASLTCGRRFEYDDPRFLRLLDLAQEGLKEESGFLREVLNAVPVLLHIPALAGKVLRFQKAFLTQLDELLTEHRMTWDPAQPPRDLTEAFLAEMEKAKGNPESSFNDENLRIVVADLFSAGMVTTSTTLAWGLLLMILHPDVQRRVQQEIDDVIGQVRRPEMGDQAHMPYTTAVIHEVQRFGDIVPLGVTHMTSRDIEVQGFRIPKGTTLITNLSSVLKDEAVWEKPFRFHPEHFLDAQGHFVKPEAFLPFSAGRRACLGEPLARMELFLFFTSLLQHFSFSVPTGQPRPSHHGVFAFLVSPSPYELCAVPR

Cytochrome P450 2C9 [3] = target: T3, Cytochrome P450 2C9 (Homo sapiens, UniProt P11712); assay: as §1, with “CYP2C9-mediated” for “CYP3A4-mediated”, “300” for “83.8”
T3 sequence (P11712 whole entry): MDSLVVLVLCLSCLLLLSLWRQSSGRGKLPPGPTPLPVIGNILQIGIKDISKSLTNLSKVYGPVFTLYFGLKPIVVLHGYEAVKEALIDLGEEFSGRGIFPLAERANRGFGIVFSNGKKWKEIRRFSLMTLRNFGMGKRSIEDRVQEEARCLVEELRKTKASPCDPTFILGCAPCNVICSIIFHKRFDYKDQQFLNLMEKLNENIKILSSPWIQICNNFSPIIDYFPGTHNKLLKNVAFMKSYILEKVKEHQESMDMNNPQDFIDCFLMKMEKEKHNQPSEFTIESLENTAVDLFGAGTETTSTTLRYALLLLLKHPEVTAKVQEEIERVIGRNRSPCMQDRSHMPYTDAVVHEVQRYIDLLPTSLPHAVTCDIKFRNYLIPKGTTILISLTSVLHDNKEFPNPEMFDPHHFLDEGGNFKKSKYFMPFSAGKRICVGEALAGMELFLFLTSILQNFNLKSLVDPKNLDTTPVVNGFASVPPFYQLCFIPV

Cytochrome P450 3A4 [4] = target: T1, Cytochrome P450 3A4; assay: as §1, with “150.3” for “83.8”; type: ADME, cell-based
Cytochrome P450 2D6 [5] = target: T2, Cytochrome P450 2D6; assay: as §1, with “CYP2D6-mediated” for “CYP3A4-mediated”, “7” for “83.8”; type: ADME, cell-based
Cytochrome P450 3A4 [6] = target: T1, Cytochrome P450 3A4; assay: as §1, with “300” for “83.8”
Cytochrome P450 2D6 [7] = target: T2, Cytochrome P450 2D6; assay: as §1, with “CYP2D6-mediated” for “CYP3A4-mediated”, “8.9” for “83.8”; type: ADME, cell-based
Cytochrome P450 2D6 [8] = target: T2, Cytochrome P450 2D6; assay: as §1, with “CYP2D6-mediated” for “CYP3A4-mediated”, “44.4” for “83.8”; type: ADME, cell-based
Cytochrome P450 2C9 [9] = target: T3, Cytochrome P450 2C9; assay: as §1, with “CYP2C9-mediated” for “CYP3A4-mediated”, “36.8” for “83.8”; type: ADME, cell-based
Cytochrome P450 3A4 [10] = target: T1, Cytochrome P450 3A4; assay: as §1, with “131.8” for “83.8”; type: ADME, cell-based
Cytochrome P450 2D6 [11] = target: T2, Cytochrome P450 2D6; assay: as §1, with “CYP2D6-mediated” for “CYP3A4-mediated”, “132.2” for “83.8”; type: ADME, cell-based
Cytochrome P450 2C9 [12] = target: T3, Cytochrome P450 2C9; assay: as §1, with “CYP2C9-mediated” for “CYP3A4-mediated”, “139.9” for “83.8”; type: ADME, cell-based
Cytochrome P450 3A4 [13] = target: T1, Cytochrome P450 3A4; assay: as §1, with “83.8 uM” left out; type: ADME, cell-based
Cytochrome P450 2D6 [14] = target: T2, Cytochrome P450 2D6; assay: as §1, with “CYP2D6-mediated” for “CYP3A4-mediated”, “3.2” for “83.8”; type: ADME, cell-based
Cytochrome P450 2C9 [15] = target: T3, Cytochrome P450 2C9; assay: as §1, with “CYP2C9-mediated” for “CYP3A4-mediated”, “12.1” for “83.8”; type: ADME, cell-based
Cytochrome P450 3A4 [16] = target: T1, Cytochrome P450 3A4; assay: as §1, with “242.9” for “83.8”; type: ADME, cell-based
Cytochrome P450 2D6 [17] = target: T2, Cytochrome P450 2D6; assay: as §1, with “CYP2D6-mediated” for “CYP3A4-mediated”, “139.7” for “83.8”; type: ADME, cell-based
Cytochrome P450 3A4 [18] = target: T1, Cytochrome P450 3A4; assay: as §1, with “36.8” for “83.8”; type: ADME, cell-based
Cytochrome P450 2D6 [19] = target: T2, Cytochrome P450 2D6; assay: as §1, with “CYP2D6-mediated” for “CYP3A4-mediated”, “194” for “83.8”; type: ADME, cell-based
Cytochrome P450 3A4 [20] = target: T1, Cytochrome P450 3A4; assay: as §1, with “209.7” for “83.8”; type: ADME, cell-based
Cytochrome P450 2D6 [21] = target: T2, Cytochrome P450 2D6; assay: as §1, with “CYP2D6-mediated” for “CYP3A4-mediated”, “156.7” for “83.8”; type: ADME, cell-based
Cytochrome P450 3A4 [22] = target: T1, Cytochrome P450 3A4; assay: as §1, with “68” for “83.8”; type: ADME, cell-based
Cytochrome P450 2D6 [23] = target: T2, Cytochrome P450 2D6; assay: as §1, with “CYP2D6-mediated” for “CYP3A4-mediated”, “80.4” for “83.8”; type: ADME, cell-based
Cytochrome P450 2C9 [24] = target: T3, Cytochrome P450 2C9; assay: as §1, with “CYP2C9-mediated” for “CYP3A4-mediated”, “70.1” for “83.8”; type: ADME, cell-based
Cytochrome P450 3A4 [25] = target: T1, Cytochrome P450 3A4; assay: as §1, with “137.9” for “83.8”; type: ADME, cell-based
Cytochrome P450 2D6 [26] = target: T2, Cytochrome P450 2D6; assay: as §1, with “CYP2D6-mediated” for “CYP3A4-mediated”, “114.4” for “83.8”; type: ADME, cell-based
Cytochrome P450 3A4 [27] = target: T1, Cytochrome P450 3A4; assay: as §1, with “6.5” for “83.8”; type: ADME, cell-based
Cytochrome P450 2D6 [28] = target: T2, Cytochrome P450 2D6; assay: as §1, with “CYP2D6-mediated” for “CYP3A4-mediated”, “300” for “83.8”

## OC(CCN1CCCCC1)(c1ccccc1)C1CC2C=CC1C2 (centres undefined) [BIPERIDEN]
Cytochrome P450 3A4 [1]
  fold change (FC): 3.6
Cytochrome P450 2D6 [2]
  fold change (FC): 1.6

## CN(C)CCC(c1ccc(Br)cc1)c1ccccn1 (centres undefined) [BROMPHENIRAMINE]
Cytochrome P450 2C9 [3]
  FC: 1
Cytochrome P450 3A4 [4]
  fold change (FC): 2
Cytochrome P450 2D6 [5]
  fold change (FC): 43

## CN(C)CCC(c1ccc(Cl)cc1)c1ccccn1 (centres undefined) [CHLORPHENIRAMINE]
Cytochrome P450 2C9 [3]
  FC: 1
Cytochrome P450 3A4 [6]
  FC: 1
Cytochrome P450 2D6 [7]
  fold change (FC): 33.6

## Clc1ccccc1C(c1ccccc1)(c1ccccc1)n1ccnc1 [CLOTRIMAZOLE]
Cytochrome P450 2D6 [8]
  fold change (FC): 0.9
Cytochrome P450 2C9 [9]
  fold change (FC): 1.1

## CNCCCN1c2ccccc2CCc2ccccc21 [DESIPRAMINE]
Cytochrome P450 3A4 [10]
  fold change (FC): 0.7
Cytochrome P450 2D6 [11]
  fold change (FC): 0.7
Cytochrome P450 2C9 [12]
  fold change (FC): 0.7

## C=C(CC)C(=O)c1ccc(OCC(=O)O)c(Cl)c1Cl [ETHACRYNIC ACID]
Cytochrome P450 3A4 [13]
  FC: 3.7
Cytochrome P450 2D6 [14]
  fold change (FC): 2.7
Cytochrome P450 2C9 [15]
  fold change (FC): 0.7

## Cc1nc(-c2ccc(OCC(C)C)c(C#N)c2)sc1C(=O)O [FEBUXOSTAT]
Cytochrome P450 2C9 [3]
  FC: 1
Cytochrome P450 3A4 [16]
  fold change (FC): 1.2
Cytochrome P450 2D6 [17]
  fold change (FC): 2.1

## CC(C)OC(=O)C(C)(C)Oc1ccc(C(=O)c2ccc(Cl)cc2)cc1 [FENOFIBRATE]
Cytochrome P450 3A4 [18]
  fold change (FC): 2.9
Cytochrome P450 2D6 [19]
  fold change (FC): 0.5
Cytochrome P450 2C9 [12]
  fold change (FC): 0.8

## O=C(COc1ccc(Cl)cc1)N1CCN(Cc2ccc3c(c2)OCO3)CC1 [FIPEXIDE]
Cytochrome P450 2C9 [3]
  FC: 0.4
Cytochrome P450 3A4 [20]
  fold change (FC): 0.6
Cytochrome P450 2D6 [21]
  fold change (FC): 0.8

## CNCCC(Oc1ccc(C(F)(F)F)cc1)c1ccccc1 (centres undefined) [FLUOXETINE]
Cytochrome P450 3A4 [22]
  fold change (FC): 0.7
Cytochrome P450 2D6 [23]
  fold change (FC): 0.6
Cytochrome P450 2C9 [24]
  fold change (FC): 0.7

## CC(C)NNC(=O)c1ccncc1 [IPRONIAZID]
Cytochrome P450 2C9 [3]
  FC: 1
Cytochrome P450 3A4 [25]
  fold change (FC): 2.2
Cytochrome P450 2D6 [26]
  fold change (FC): 2.6

## CC(CCc1ccccc1)NCC(O)c1ccc(O)c(C(N)=O)c1 (centres undefined) [LABETALOL]
Cytochrome P450 2C9 [3]
  FC: 1
Cytochrome P450 3A4 [27]
  fold change (FC): 46
Cytochrome P450 2D6 [28]
  FC: 1
